# Measured values from US20240398814A1, “KRAS INHIBITOR AND HDAC INHIBITOR COMBINATION FOR THE TREATMENT OF CANCER” (Northwestern University, priority 2023, published 2024).
# Experiments:
# [1] = test system: KL LJE1 cells; experiment: qRT-PCR of chemokine (HRCG) gene expression in KL LJE1 cells; type: cell-based, mouse
# Procedure: (§1) All cell lines were incubated at 37° C. and were maintained in an atmosphere containing 5% CO2. Cells were tested for Mycoplasma (Lonza) using manufacturer's conditions and were deemed negative. Cells were grown in Dulbecco's modified Eagles medium (DMEM) plus 10% fetal bovine serum (Gibco) and were continuously maintained under antibiotic selection for stable cell lines. Proliferation assays were performed by plating 2×10^3 cells per well of a 6-well plate, and cells were counted 5 days post-plating. Drug treatments were carried out using the following doses: entinostat 1 uM or 2 uM, RGFP966 10uM, TSA 0.5 uM, BRD3308 5 uM, trametinib 5 nM, 10 nM, and 25 nM, and MRTX1133 10 nM, 25 nM, and 50 nM, as indicated for the indicated treatment lengths. Media was changed and fresh drug added every 2 days.
# (§2) mRNA was prepared using the Quick-RNA Miniprep kit (Zymo Research), including DNase treatment. cDNA was synthesized from 2 μg of RNA using SuperScript III (Life Technologies), and qPCR was carried out with diluted cDNA, appropriate primers, and SYBR Green PCR master mix (ThermoFisher Scientific) using a C1000 Thermal Cycler (BioRad). Relative mRNA levels were calculated using the delta Ct method, using Tbp as an internal control.
# [2] = test system: A549 cells; experiment: qRT-PCR of chemokine gene expression in A549 cells; type: cell-based, human; details: 2 uM entinostat 3 days, 5 uM BRD3308 4 days
# Procedure: as §1, §2
# [3] = test system: H460 cells; experiment: qRT-PCR of chemokine gene expression in H460 cells; type: cell-based, human; details: 1 uM entinostat 4 days, 5 uM BRD3308 4 days
# Procedure: as §1, §2
# [4] = test system: NF-kB/p65 protein; experiment: Western blot of p65 nuclear localisation and K310 acetylation in KL LJE1 cells; type: cell-based, mouse; details: for quantity of p65 protein in the nuclear fraction: Western blot, 6 hr, 2 uM entinostat, 10uM RGFP966, 0.5 uM TSA
# Procedure: (§3) Protein lysates in CST buffer (20 mM Tris pH 7.5, 150 mM NaCl, 1% Triton X-100, 50 mM NaF, 1 mM EDTA, 1 mM EGTA, 2.5 mM PyroPhosphate, 2 mM beta-glycerol-phosphate, 1 mM orthovanadate, 0.01 mM Calyculan A) with protease inhibitors were equilibrated for protein levels using a BCA protein assay kit (Pierce), resolved on 8% SDS-PAGE gels, and transferred to membrane. Membranes were blocked in milk, incubated o/n at 4C in diluted primary antibody, washed with TBS-T, incubated 1 hr in secondary antibody diluted in TBS-T plus milk, washed in TBS-T, and developed using SuperSignal ECL. Secondary antibodies: anti-rabbit (Millipore AP132P) and anti-mouse (Millipore AP124P). Nuclear fractions were isolated using a NE-PER nuclear and cytoplasmic extraction kit (Thermofisher) under manufacturers conditions.
# p65-expressing DNA constructs RelA-Flag (22) (Addgene 20012) and GFP-RelA (21) (Addgene 23255) were transiently transfected into KL LJE1 cells using Lipofectamine 2000 (Thermo Fisher Scientific) according to the manufacturer's protocol. Cells were treated with drug as indicated 24 hours after transfection.
# [5] = test system: KL LJE1 cells; experiment: Western blot and qRT-PCR of FGFR1, NKX2-1 and ERK phosphorylation in drug-treated KL LJE1 cells; type: cell-based, mouse
# Procedure: as §1, §2, §3
# [6] = test system: human lung cancer cells; experiment: FGFR1 resistance mechanism in human lung cancer cells; type: cell-based; details: 6 days of treatment
# [7] = test system: KL LJE1 cells; experiment: RNA-seq of drug-treated KL LJE1 cells (TIER genes); type: cell-based, mouse; details: adj. p-value<0.05, 10 nM trametinib
# Procedure: All cell lines were incubated at 37° C. and were maintained in an atmosphere containing 5% CO2. Cells were tested for Mycoplasma (Lonza) using manufacturer's conditions and were deemed negative. Cells were grown in Dulbecco's modified Eagles medium (DMEM) plus 10% fetal bovine serum (Gibco) and were continuously maintained under antibiotic selection for stable cell lines. Proliferation assays were performed by plating 2×10^3 cells per well of a 6-well plate, and cells were counted 5 days post-plating. […]
# mRNA was collected from cells harvested within 2 passages post-thaw. mRNA was isolated using the Quick-RNA Miniprep kit (Zymo Research), including DNase treatment. RNA integrity (RIN) numbers were determined using the Agilent TapeStation prior to library preparation. mRNA-seq libraries were prepared using the TruSeq RNA library preparation kit (version 2), according to the manufacturer's instructions (Illumina). Libraries were quantified, pooled, and sequenced by single-end 50 base pairs using the Illumina HiSeq 2500 platform at the Salk Next-Generation Sequencing Core. […]
# Sequenced reads were quality-tested using the online FASTQC tool (bioinformatics.babraham.ac.uk/projects/fastqc) and aligned to the mouse mm10 genome using the STAR aligner version 2.4.0k (Ref. 81; incorporated by reference in its entirety). […]
# [8] = HDAC3 KO cells, 5 days, MRTX1133 10, 25, or 50 nM, trametinib 5, 10, or 25 nM
smiles,measurement,setting,value
CC(=O)Nc1ccc(C(=O)Nc2ccc(F)cc2N)cc1 [BRD3308],gene expression induction in NT versus p65 KO cells,"[1]; 3 days, 1 uM entinostat or 5 uM BRD3308",p65 facilitates maximal gene expression induction
same,chemokine (SASP) gene expression,[2],induced the expression of these genes
same,chemokine (SASP) gene expression,[3],induced the expression of these genes
same,acetylation of wildtype p65 at K310 (versus K310A mutant),"[4]; 5 hours, 1 uM entinostat or 5 uM BRD3308",induce acetylation of wildtype p65 at K310
Nc1cc(F)ccc1NC(=O)/C=C/c1cnn(C/C=C/c2ccccc2)c1 [RGFP966],chemokine (SASP) gene expression,"[1]; 72 hr, 2 uM entinostat or 10uM RGFP966",robust induction of gene expression
same,quantity of p65 protein in the nuclear fraction,[4],increased the quantity of p65 protein in the nuclear fraction
C#Cc1c(F)ccc2cc(O)cc(-c3ncc4c(N5CC6CCC(C5)N6)nc(OC[C@@]56CCCN5C[C@H](F)C6)nc4c3F)c12 [MRTX1133],FGFR1 resistance mechanism,[5]; 1 day of treatment,induces the FGFR1 resistance mechanism in an HDAC3-dependent manner
same,FGFR1 resistance mechanism,[5]; 5 days of treatment,induces the FGFR1 resistance mechanism in an HDAC3-dependent manner
same,ERK phosphorylation at Thr202/Tyr204,"[5]; Western blot, 24 hr, 10 nM, 25 nM or 50 nM MRTX1133",on-target Kras inhibition
same,"HRCG expression, drug alone (NT cells)","[1]; 5 days, MRTX1133 10, 25, or 50 nM",did not impact the expression of these genes
same,"HDAC3 KO-dependent induction of immunosuppressive HRCGs (Cxc15, Cxc1, Cxc12, Cxc13)",[1]; [8],reversed the HDAC3-dependent induction
same,"HDAC3 KO-dependent induction of immunosurveillance-related HRCGs (Cc15, Cxc110)",[1]; [8],expression was maintained in the presence of MRTX1133
same,FGFR1 resistance mechanism,[6],induces the FGFR1 resistance mechanism
CC(=O)Nc1cccc(-n2c(=O)n(C3CC3)c(=O)c3c(Nc4ccc(I)cc4F)n(C)c(=O)c(C)c32)c1 [trametinib],genes upregulated upon 13 day trametinib compared to vehicle,[7],"2,141 genes"
"CC(/C=C/C(=O)NO)=C\[C@@H](C)C(=O)c1ccc(N(C)C)cc1 [TSA, trichostatin a]",quantity of p65 protein in the nuclear fraction,[4],increased the quantity of p65 protein in the nuclear fraction
